# In the supplement of paper PMC10307832:
# Key:
# Assay in all cases: relative viability (nuclei count vs DMSO), 5 days (fraction); higher = more cells survive
# HCC-366 = system: HCC-366
# In short: (§1)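 Lung cancer cell lines, seeded in 1536-well plates, were treated the following day by pin tool with a single drug or with five library-drug doses (not always all listed) in √10 steps on top of a fixed anchor-drug dose. Cells were fixed and nuclei stained in one step after 5 days, and nuclei were counted. Relative viability is the nuclei count for treated wells divided by that for vehicle wells, reported as medians of duplicate plates.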
# NCI-H2009 = system: NCI-H2009
# In short: as §1
# SK-LU-1 = system: SK-LU-1
# In short: as §1
# HCC-15 = system: HCC-15
# In short: as §1
# NCI-H2023 = system: NCI-H2023
# In short: as §1
# NCI-H460 = system: NCI-H460
# In short: as §1
# NCI-H1437 = system: NCI-H1437
# In short: as §1
# NCI-H1915 = system: NCI-H1915
# In short: as §1
# NCI-H1793 = system: NCI-H1793
# In short: as §1
# NCI-H596 = system: NCI-H596
# In short: as §1
# NCI-H2405 = system: NCI-H2405
# In short: as §1
# PC-14 = system: PC-14
# In short: as §1
# NCI-H650 = system: NCI-H650
# In short: as §1
# H3255 = system: H3255
# In short: as §1
# A-427 = system: A-427
# In short: as §1
# NCI-H3122 = system: NCI-H3122
# In short: as §1
# UMC-11 = system: UMC-11
# In short: as §1
# LXF-289 = system: LXF-289
# In short: as §1
# HARA = system: HARA
# In short: as §1
# NCI-H1975 = system: NCI-H1975
# In short: as §1
# NCI-H1755 = system: NCI-H1755
# In short: as §1
# PC-3 [JPC-3] = system: PC-3 [JPC-3]
# In short: as §1
compound,measurement,setting,value
O=C(O)CCCCC(CCSCc1ccccc1)SCc1ccccc1 (centres undefined) [CPI-613] + CS(=O)(=O)CCNCc1ccc(-c2ccc3ncnc(Nc4ccc(OCc5cccc(F)c5)c(Cl)c4)c3c2)o1 [Lapatinib] (partner 2 µM),relative viability,HCC-366; first compound 5 µM,0.959
same,relative viability,HCC-366; first compound 15.81 µM,1.02
same,relative viability,HCC-366; first compound 50 µM,1
same,relative viability,HCC-366; first compound 158.11 µM,0.284
same,relative viability,HCC-366; first compound 500 µM,0.0085
same,relative viability,NCI-H2009; first compound 5 µM,0.996
same,relative viability,NCI-H2009; first compound 15.81 µM,0.897
same,relative viability,NCI-H2009; first compound 50 µM,0.771
same,relative viability,NCI-H2009; first compound 158.11 µM,0.18
same,relative viability,NCI-H2009; first compound 500 µM,0.0119
same,relative viability,SK-LU-1; first compound 5 µM,0.818
same,relative viability,SK-LU-1; first compound 15.81 µM,0.692
same,relative viability,SK-LU-1; first compound 50 µM,0.752
same,relative viability,SK-LU-1; first compound 158.11 µM,0.587
same,relative viability,SK-LU-1; first compound 500 µM,0.379
same,relative viability,HCC-15; first compound 5 µM,0.785
same,relative viability,HCC-15; first compound 15.81 µM,0.801
same,relative viability,HCC-15; first compound 50 µM,0.682
same,relative viability,HCC-15; first compound 158.11 µM,0.599
same,relative viability,HCC-15; first compound 500 µM,0.285
same,relative viability,NCI-H2023; first compound 5 µM,0.694
same,relative viability,NCI-H2023; first compound 15.81 µM,0.63
same,relative viability,NCI-H2023; first compound 50 µM,0.755
same,relative viability,NCI-H2023; first compound 158.11 µM,0.0743
same,relative viability,NCI-H2023; first compound 500 µM,0.0041
same,relative viability,NCI-H460; first compound 5 µM,0.87
same,relative viability,NCI-H460; first compound 15.81 µM,0.853
same,relative viability,NCI-H460; first compound 50 µM,0.838
same,relative viability,NCI-H460; first compound 158.11 µM,0.243
same,relative viability,NCI-H460; first compound 500 µM,0.0072
same,relative viability,NCI-H1437; first compound 5 µM,0.772
same,relative viability,NCI-H1437; first compound 15.81 µM,0.685
same,relative viability,NCI-H1437; first compound 50 µM,0.746
same,relative viability,NCI-H1437; first compound 158.11 µM,0.185
same,relative viability,NCI-H1437; first compound 500 µM,0.0285
same,relative viability,NCI-H1915; first compound 5 µM,0.948
same,relative viability,NCI-H1915; first compound 15.81 µM,1.02
same,relative viability,NCI-H1915; first compound 50 µM,0.948
same,relative viability,NCI-H1915; first compound 158.11 µM,0.873
same,relative viability,NCI-H1915; first compound 500 µM,0.832
same,relative viability,NCI-H1793; first compound 5 µM,0.683
same,relative viability,NCI-H1793; first compound 50 µM,0.732
same,relative viability,NCI-H1793; first compound 158.11 µM,0.306
same,relative viability,NCI-H1793; first compound 500 µM,0.0696
same,relative viability,NCI-H596; first compound 5 µM,1.01
same,relative viability,NCI-H596; first compound 15.81 µM,1.05
same,relative viability,NCI-H596; first compound 50 µM,1.02
same,relative viability,NCI-H596; first compound 158.11 µM,1.05
same,relative viability,NCI-H596; first compound 500 µM,0.0407
same,relative viability,NCI-H2405; first compound 5 µM,1.09
same,relative viability,NCI-H2405; first compound 15.81 µM,1.12
same,relative viability,NCI-H2405; first compound 50 µM,1.09
same,relative viability,NCI-H2405; first compound 158.11 µM,0.979
same,relative viability,NCI-H2405; first compound 500 µM,0.902
same,relative viability,PC-14; first compound 5 µM,0.347
same,relative viability,PC-14; first compound 15.81 µM,0.307
same,relative viability,PC-14; first compound 50 µM,0.303
same,relative viability,PC-14; first compound 158.11 µM,0.251
same,relative viability,PC-14; first compound 500 µM,0.259
same,relative viability,NCI-H650; first compound 5 µM,1.05
same,relative viability,NCI-H650; first compound 15.81 µM,0.913
same,relative viability,NCI-H650; first compound 50 µM,1.11
same,relative viability,NCI-H650; first compound 158.11 µM,0.84
same,relative viability,NCI-H650; first compound 500 µM,0.724
same,relative viability,H3255; first compound 5 µM,0.234
same,relative viability,H3255; first compound 15.81 µM,0.253
same,relative viability,H3255; first compound 50 µM,0.291
same,relative viability,H3255; first compound 158.11 µM,0.256
same,relative viability,H3255; first compound 500 µM,0.25
same,relative viability,A-427; first compound 5 µM,0.974
same,relative viability,A-427; first compound 15.81 µM,0.94
same,relative viability,A-427; first compound 50 µM,1.07
same,relative viability,A-427; first compound 158.11 µM,0.996
same,relative viability,A-427; first compound 500 µM,0.948
same,relative viability,NCI-H3122; first compound 5 µM,1.02
same,relative viability,NCI-H3122; first compound 15.81 µM,0.971
same,relative viability,NCI-H3122; first compound 50 µM,0.994
same,relative viability,NCI-H3122; first compound 158.11 µM,0.856
same,relative viability,NCI-H3122; first compound 500 µM,0.0332
same,relative viability,UMC-11; first compound 5 µM,1.08
same,relative viability,UMC-11; first compound 15.81 µM,1.11
same,relative viability,UMC-11; first compound 50 µM,0.789
same,relative viability,UMC-11; first compound 158.11 µM,0.438
same,relative viability,UMC-11; first compound 500 µM,0.119
same,relative viability,LXF-289; first compound 5 µM,0.842
same,relative viability,LXF-289; first compound 15.81 µM,0.881
same,relative viability,LXF-289; first compound 50 µM,0.835
same,relative viability,LXF-289; first compound 158.11 µM,0.585
same,relative viability,LXF-289; first compound 500 µM,0.0115
same,relative viability,HARA; first compound 5 µM,0.702
same,relative viability,HARA; first compound 15.81 µM,0.678
same,relative viability,HARA; first compound 50 µM,0.792
same,relative viability,HARA; first compound 158.11 µM,0.521
same,relative viability,HARA; first compound 500 µM,0.0307
same,relative viability,NCI-H1975; first compound 5 µM,0.89
same,relative viability,NCI-H1975; first compound 15.81 µM,0.832
same,relative viability,NCI-H1975; first compound 50 µM,0.821
same,relative viability,NCI-H1975; first compound 158.11 µM,0.824
same,relative viability,NCI-H1975; first compound 500 µM,0.0608
same,relative viability,NCI-H1755; first compound 5 µM,0.997
same,relative viability,NCI-H1755; first compound 15.81 µM,0.996
same,relative viability,NCI-H1755; first compound 50 µM,1
same,relative viability,NCI-H1755; first compound 158.11 µM,0.969
same,relative viability,NCI-H1755; first compound 500 µM,0.232
same,relative viability,PC-3 [JPC-3]; first compound 5 µM,0.493
same,relative viability,PC-3 [JPC-3]; first compound 15.81 µM,0.439
same,relative viability,PC-3 [JPC-3]; first compound 50 µM,0.425
same,relative viability,PC-3 [JPC-3]; first compound 158.11 µM,0.415
same,relative viability,PC-3 [JPC-3]; first compound 500 µM,0.407
